Laboratory results taken from PMC8699473, “An Easily Expandable Multi-Drug LC-MS Assay for the Simultaneous Quantification of 57 Oral Antitumor Drugs in Human Plasma” (Cancers, 2021).

Experiment: Long-term stability in spiked pooled human plasma

| SMILES | Long-term stability, 1 month, -20°C Accuracy [%] (validation standard 2xLLOV) | Long-term stability, 1 month, -80°C Accuracy [%] (validation standard 2xLLOV) | Long-term stability, 2 month, -20°C Accuracy [%] (validation standard 2xLLOV) | Long-term stability, 2 month, -80°C Accuracy [%] (validation standard 2xLLOV) | Long-term stability, 3 month, -20°C Accuracy [%] (validation standard 2xLLOV) | Long-term stability, 3 month, -80°C Accuracy [%] (validation standard 2xLLOV) | Long-term stability, 6 weeks, 4°C, without daylight Accuracy [%] (validation standard 2xLLOV) | Long-term stability, 1 month, -20°C Accuracy [%] (validation standard LLOV) | Long-term stability, 1 month, -80°C Accuracy [%] (validation standard LLOV) | Long-term stability, 2 month, -20°C Accuracy [%] (validation standard LLOV) | Long-term stability, 2 month, -80°C Accuracy [%] (validation standard LLOV) | Long-term stability, 3 month, -20°C Accuracy [%] (validation standard LLOV) | Long-term stability, 3 month, -80°C Accuracy [%] (validation standard LLOV) | Long-term stability, 1 month, -20°C Accuracy [%] (validation standard MOV) | Long-term stability, 1 month, -80°C Accuracy [%] (validation standard MOV) | Long-term stability, 2 month, -20°C Accuracy [%] (validation standard MOV) | Long-term stability, 2 month, -80°C Accuracy [%] (validation standard MOV) | Long-term stability, 3 month, -20°C Accuracy [%] (validation standard MOV) | Long-term stability, 3 month, -80°C Accuracy [%] (validation standard MOV) | Long-term stability, 6 weeks, 4°C, without daylight Accuracy [%] (validation standard MOV) | further results |
| --- | --- | --- | --- | --- | --- | --- | --- | --- | --- | --- | --- | --- | --- | --- | --- | --- | --- | --- | --- | --- | --- |
| CCOc1cc2ncc(C#N)c(Nc3ccc(OCc4ccccn4)c(Cl)c3)c2cc1NC(=O)/C=C/CN(C)C [Neratinib] | 79.9 | 84.9 | 67.5 | 94.6 | 70.3 | 90.2 | 7.4 | 66.9 | 71.8 | 77.1 | 88.3 | 50.3 | 81.4 | 82.9 | 84.6 | 81.2 | 92.9 | 79.5 | 92.5 | 10.0 | Long-term stability, 1 month, -20°C Accuracy [%] (validation standard ULOV): 79.7%; Long-term stability, 1 month, -80°C Accuracy [%] (validation standard ULOV): 78.2%; Long-term stability, 2 month, -20°C Accuracy [%] (validation standard ULOV): 82.8%; Long-term stability, 2 month, -80°C Accuracy [%] (validation standard ULOV): 88.3%; Long-term stability, 3 month, -20°C Accuracy [%] (validation standard ULOV): 75.5%; Long-term stability, 3 month, -80°C Accuracy [%] (validation standard ULOV): 91.8%; Long-term stability, 6 weeks, 4°C, without daylight Accuracy [%] (validation standard ULOV): 8.5% |
| Nc1cccc2c1C(=O)N(C1CCC(=O)NC1=O)C2=O (centres unmarked) [Pomalidomide] | 90.4 | 90.2 | 107.3 | 96.6 | 95.5 | 97.4 | 19.0 | 91.3 | 85.8 | 95.9 | 99.9 | 97.6 | 97.4 | 90.6 | 88.3 | 97.2 | 99.4 | 90.0 | 94.9 | 15.7 | Long-term stability, 6 weeks, 4°C, without daylight Accuracy [%] (validation standard LLOV): 30.1%; Long-term stability, 1 month, -20°C Accuracy [%] (validation standard ULOV): 94.6%; Long-term stability, 1 month, -80°C Accuracy [%] (validation standard ULOV): 89.1%; Long-term stability, 2 month, -20°C Accuracy [%] (validation standard ULOV): 94.1%; Long-term stability, 2 month, -80°C Accuracy [%] (validation standard ULOV): 99.0%; Long-term stability, 3 month, -20°C Accuracy [%] (validation standard ULOV): 87.6%; Long-term stability, 3 month, -80°C Accuracy [%] (validation standard ULOV): 95.1%; Long-term stability, 6 weeks, 4°C, without daylight Accuracy [%] (validation standard ULOV): 11.3% |
| N#CC[C@H](C1CCCC1)n1cc(-c2ncnc3[nH]ccc23)cn1 [Ruxolitinib] | 101.5 | 93.0 | 97.7 | 100.0 | 97.5 | 99.4 | 93.8 | 95.6 | 94.6 | 98.6 | 99.8 | 101.8 | 96.5 | 95.8 | 94.2 | 97.7 | 96.8 | 97.0 | 94.6 | 97.6 | Long-term stability, 6 weeks, 4°C, without daylight Accuracy [%] (validation standard LLOV): 97.9%; Long-term stability, 1 month, -20°C Accuracy [%] (validation standard ULOV): 95.3%; Long-term stability, 1 month, -80°C Accuracy [%] (validation standard ULOV): 91.6%; Long-term stability, 2 month, -20°C Accuracy [%] (validation standard ULOV): 95.3%; Long-term stability, 2 month, -80°C Accuracy [%] (validation standard ULOV): 95.8%; Long-term stability, 3 month, -20°C Accuracy [%] (validation standard ULOV): 95.4%; Long-term stability, 3 month, -80°C Accuracy [%] (validation standard ULOV): 94.5%; Long-term stability, 6 weeks, 4°C, without daylight Accuracy [%] (validation standard ULOV): 96.6% |
| Cc1cc(Nc2ncc(Cl)c(Nc3ccccc3S(=O)(=O)C(C)C)n2)c(OC(C)C)cc1C1CCNCC1 [Ceritinib] | 94.3 | 89.5 | 94.4 | 96.4 | 91.8 | 93.4 | 77.8 | 101.5 | 96.1 | 99.7 | 103.7 | 96.9 | 100.3 | 93.3 | 93.7 | 94.6 | 95.5 | 94.1 | 95.7 | 104.9 | Long-term stability, 6 weeks, 4°C, without daylight Accuracy [%] (validation standard LLOV): 78.9%; Long-term stability, 1 month, -20°C Accuracy [%] (validation standard ULOV): 97.3%; Long-term stability, 1 month, -80°C Accuracy [%] (validation standard ULOV): 94.0%; Long-term stability, 2 month, -20°C Accuracy [%] (validation standard ULOV): 99.1%; Long-term stability, 2 month, -80°C Accuracy [%] (validation standard ULOV): 100.5%; Long-term stability, 3 month, -20°C Accuracy [%] (validation standard ULOV): 101.8%; Long-term stability, 3 month, -80°C Accuracy [%] (validation standard ULOV): 100.0%; Long-term stability, 6 weeks, 4°C, without daylight Accuracy [%] (validation standard ULOV): 97.9% |
| CCN1CCN(Cc2ccc(Nc3ncc(F)c(-c4cc(F)c5nc(C)n(C(C)C)c5c4)n3)nc2)CC1 [Abemaciclib] | 95.0 | 90.1 | 109.1 | 111.4 | 98.8 | 103.4 | 92.0 | 103.5 | 88.4 | 107.2 | 112.7 | 95.7 | 101.8 | 103.0 | 96.2 | 107.3 | 105.5 | 104.4 | 101.8 | 106.3 | Long-term stability, 6 weeks, 4°C, without daylight Accuracy [%] (validation standard LLOV): 86.3%; Long-term stability, 1 month, -20°C Accuracy [%] (validation standard ULOV): 102.4%; Long-term stability, 1 month, -80°C Accuracy [%] (validation standard ULOV): 97.8%; Long-term stability, 2 month, -20°C Accuracy [%] (validation standard ULOV): 106.0%; Long-term stability, 2 month, -80°C Accuracy [%] (validation standard ULOV): 105.1%; Long-term stability, 3 month, -20°C Accuracy [%] (validation standard ULOV): 103.5%; Long-term stability, 3 month, -80°C Accuracy [%] (validation standard ULOV): 99.9%; Long-term stability, 6 weeks, 4°C, without daylight Accuracy [%] (validation standard ULOV): 99.1% |
| Cc1ccc(NC(=O)c2ccc(CN3CCN(C)CC3)cc2)cc1Nc1nccc(-c2cccnc2)n1 [Imatinib] | 97.8 | 96.3 | 104.1 | 112.9 | 64.1 | 72.7 | 103.4 | 88.0 | 77.3 | 95.6 | 103.3 | 19.7 | 18.2 | 87.1 | 84.4 | 99.4 | 96.4 | 90.0 | 90.1 | 95.4 | Long-term stability, 6 weeks, 4°C, without daylight Accuracy [%] (validation standard LLOV): 86.4%; Long-term stability, 1 month, -20°C Accuracy [%] (validation standard ULOV): 87.9%; Long-term stability, 1 month, -80°C Accuracy [%] (validation standard ULOV): 79.8%; Long-term stability, 2 month, -20°C Accuracy [%] (validation standard ULOV): 91.0%; Long-term stability, 2 month, -80°C Accuracy [%] (validation standard ULOV): 89.1%; Long-term stability, 3 month, -20°C Accuracy [%] (validation standard ULOV): 89.6%; Long-term stability, 3 month, -80°C Accuracy [%] (validation standard ULOV): 89.4%; Long-term stability, 6 weeks, 4°C, without daylight Accuracy [%] (validation standard ULOV): 89.8% |
